Test results published in PubChem BioAssay (NCI).
Converted amounts (≈) assume the structure as drawn.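 Protocol summary: plate cells (96-well), add compound at 5 concentrations, incubate 48 h, interpolate endpoints linearly. Abbreviation: GI50, concentration required for 50% inhibition of growth. The concentration for full growth arrest is given as TGI.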

Assays:
Assay in all cases: NCI-60 cell line screen, 48 h
HOP-18 NSCLC = system: HOP-18 NSCLC
M19-MEL melanoma = system: M19-MEL melanoma
RXF-631 renal = system: RXF-631 renal
LXFL 529 NSCLC = system: LXFL 529 NSCLC
DMS 114 small cell lung = system: DMS 114 small cell lung
SNB-78 CNS = system: SNB-78 CNS
MDA-N = system: MDA-N

N#CCN1C(=O)c2cc([N+](=O)[O-])cc3cc([N+](=O)[O-])cc(c23)C1=O
TGI (HOP-18 NSCLC): > 100 µM
TGI (M19-MEL melanoma): 37.7 µM
TGI (RXF-631 renal): > 60.6 µM
TGI (LXFL 529 NSCLC): > 50.6 µM
TGI (DMS 114 small cell lung): 37.5 µM
TGI (SNB-78 CNS): > 58 µM

CCOC(=O)C1Nc2ccccc2[C@H]2OCC[C@@H]12 (stereo partly specified)
TGI (HOP-18 NSCLC): > 100 µM
TGI (M19-MEL melanoma): > 100 µM
TGI (SNB-78 CNS): > 100 µM

CN=C1OC2(c3ccccc3)C3=C(OC(=NC)N2C)C(=O)OC3(c2ccccc2)N1C (stereo unspecified)
TGI (MDA-N): > 100 µM

O=C1OC(=O)c2c1c(-c1ccccc1)nc1ccccc21
TGI (M19-MEL melanoma): > 100 µM
TGI (RXF-631 renal): > 100 µM
TGI (LXFL 529 NSCLC): > 100 µM
TGI (DMS 114 small cell lung): > 100 µM
TGI (SNB-78 CNS): > 100 µM

Clc1ccc(C2ON=C(c3ccccc3)N2C23CC4CC(CC(C4)C2)C3)cc1 (stereo unspecified)
TGI (MDA-N): > 10 µM

O=C(O)c1ccccc1NC(=S)c1ccccc1
TGI (MDA-N): > 100 µM

O=C(O)CCNS(=O)(=O)c1ccc([N+](=O)[O-])cc1
TGI (HOP-18 NSCLC): > 100 µM
TGI (M19-MEL melanoma): > 100 µM
TGI (RXF-631 renal): > 100 µM
TGI (LXFL 529 NSCLC): > 100 µM

CC(=O)O[C@@H]1C[C@@]2(C)[C@@H]3CC=C4[C@@H](C[C@H](O)C(=O)C4(C)C)[C@]3(C)C(=O)C[C@]2(C)[C@H]1[C@@](C)(O)C(=O)/C=C/C(C)(C)OC(C)=O
TGI (MDA-N): 14.8 µM

NC1=NC(=O)C(CC(=O)Nc2ccc(Cl)cc2Cl)S1 (stereo unspecified)
TGI (M19-MEL melanoma): > 100 µM
TGI (LXFL 529 NSCLC): > 100 µM
TGI (SNB-78 CNS): > 100 µM

O=C(O)c1cc(CCc2cc(O)ccc2O)ccc1O
TGI (MDA-N): 27.1 µM

CC1=C(CC2C(=O)N(c3ccccc3)S(=O)(=O)NC2C)C(=O)N(c2ccccc2)S(=O)(=O)N1C (stereo unspecified)
TGI (M19-MEL melanoma): > 100 µM
TGI (RXF-631 renal): > 100 µM
TGI (LXFL 529 NSCLC): > 100 µM
TGI (DMS 114 small cell lung): > 100 µM
TGI (SNB-78 CNS): > 100 µM

CC(=O)/C(=C\c1ccccc1O)C(=O)Nc1ccccc1C
TGI (HOP-18 NSCLC): > 100 µM
TGI (M19-MEL melanoma): > 100 µM
TGI (LXFL 529 NSCLC): 98.6 µM
TGI (DMS 114 small cell lung): > 100 µM
TGI (SNB-78 CNS): 98.7 µM

O=C(c1ccccc1)c1c(CC(O)c2ccncc2)n(C(=O)c2ccccc2)c2ccccc12 (stereo unspecified)
TGI (M19-MEL melanoma): 33 µM
TGI (LXFL 529 NSCLC): 45.9 µM
TGI (DMS 114 small cell lung): 40.2 µM

COc1cc(C2(C)SCCCS2)cc(OC)c1OC
TGI (HOP-18 NSCLC): > 100 µM
TGI (M19-MEL melanoma): > 100 µM
TGI (RXF-631 renal): > 100 µM
TGI (LXFL 529 NSCLC): > 100 µM
TGI (DMS 114 small cell lung): > 100 µM

CC1=C(C(=O)Nc2ccc(Cl)c(Cl)c2)C(c2ccc([N+](=O)[O-])cc2)C(C(=O)Nc2ccc(Cl)c(Cl)c2)=C(C)N1
TGI (HOP-18 NSCLC): 19.2 µM
TGI (M19-MEL melanoma): 3.97 µM
TGI (RXF-631 renal): 6.69 µM
TGI (LXFL 529 NSCLC): 11.8 µM
TGI (DMS 114 small cell lung): 9.66 µM
TGI (SNB-78 CNS): 26.7 µM

N#CCCC1(CCC#N)CCCCCCCCC(CCC#N)(CCC#N)C(O)C1O (stereo unspecified)
TGI (MDA-N): > 100 µM

Cc1cc(C)c(C2CNCc3cc4c(cc32)CNCC4c2c(C)cc(C)cc2C)c(C)c1 (stereo unspecified)
GI50 (MDA-N): 2.05 µg/mL (≈ 4.83 µM)
TGI (MDA-N): 4.3 µg/mL

N#CNc1nc(N)c(-c2ccc(Cl)cc2)c(C(=O)Nc2nccs2)n1
TGI (HOP-18 NSCLC): > 100 µM
TGI (M19-MEL melanoma): > 100 µM
TGI (LXFL 529 NSCLC): > 100 µM
TGI (DMS 114 small cell lung): > 100 µM
TGI (SNB-78 CNS): > 100 µM

CNNC(=NS(=O)(=O)c1cc(C#N)c(NNC)cc1S)NNC
TGI (MDA-N): > 10 µM

COc1ccc(-c2cc(=O)c3c(O)cccc3o2)c(OC)c1OC
TGI (M19-MEL melanoma): > 100 µM
TGI (RXF-631 renal): > 100 µM
TGI (LXFL 529 NSCLC): > 100 µM
TGI (DMS 114 small cell lung): > 100 µM
TGI (SNB-78 CNS): > 100 µM

COc1ccc(OC(=O)CC2Cc3cc(OC)c(OC)c(OC)c3-c3ccc(SC)c(=O)cc32)cc1 (stereo unspecified)
TGI (M19-MEL melanoma): > 100 µM
TGI (RXF-631 renal): > 100 µM
TGI (LXFL 529 NSCLC): 11.3 µM
TGI (DMS 114 small cell lung): 5.52 µM

O=C1c2ccccc2N2OC3(N4CCCC4)CCCCC3C12c1ccccc1 (stereo unspecified)
TGI (HOP-18 NSCLC): > 100 µM
TGI (M19-MEL melanoma): 22 µM
TGI (LXFL 529 NSCLC): 27.7 µM
TGI (DMS 114 small cell lung): 28.4 µM
TGI (SNB-78 CNS): 33.9 µM

COc1ccc(C(=O)/C=C/c2ccc(OCC#N)cc2)cc1
TGI (MDA-N): > 10 µM

O=C1C=C(O)C(=Cc2c(O)cc(O)cc2O)C(O)=C1
TGI (HOP-18 NSCLC): > 100 µM
TGI (M19-MEL melanoma): > 100 µM
TGI (RXF-631 renal): > 100 µM
TGI (LXFL 529 NSCLC): > 100 µM
TGI (DMS 114 small cell lung): > 100 µM
TGI (SNB-78 CNS): > 100 µM

NNc1nnc(-c2nnc(NN)o2)o1
TGI (MDA-N): > 10 µM

Nc1nc(N)c(CCCCc2ccccc2)c(N)n1
TGI (M19-MEL melanoma): > 100 µM
TGI (MDA-N): > 100 µM
TGI (LXFL 529 NSCLC): > 100 µM
TGI (DMS 114 small cell lung): > 100 µM

Oc1cc(-n2cccn2)c(O)cc1-n1cccn1
TGI (HOP-18 NSCLC): > 100 µM
TGI (M19-MEL melanoma): 51.1 µM
TGI (RXF-631 renal): > 100 µM
TGI (MDA-N): 33.5 µM
TGI (LXFL 529 NSCLC): 34.7 µM
TGI (DMS 114 small cell lung): > 67.6 µM
TGI (SNB-78 CNS): > 68.7 µM

Cc1ccc(NC(=O)C(=O)C(C(=O)/C=C/c2ccccc2)C2OC(=O)c3ccccc32)c(C)c1 (stereo unspecified)
TGI (M19-MEL melanoma): > 100 µM
TGI (RXF-631 renal): > 100 µM
TGI (LXFL 529 NSCLC): > 100 µM
TGI (DMS 114 small cell lung): > 100 µM
TGI (SNB-78 CNS): > 100 µM

ClC1=C(Cl)C(Cl)(Cl)c2c3c(c4c(c21)C(Cl)(Cl)C(Cl)=C4Cl)C(Cl)(Cl)C(Cl)=C3Cl
TGI (LXFL 529 NSCLC): > 100 µM
TGI (DMS 114 small cell lung): > 100 µM

CC(C)(C)c1cc2nc(c1)C(C(F)(F)F)(C(F)(F)F)OB(Br)OC2(C(F)(F)F)C(F)(F)F
TGI (M19-MEL melanoma): 12.2 µM
TGI (RXF-631 renal): 5.35 µM
TGI (LXFL 529 NSCLC): 13.9 µM
TGI (DMS 114 small cell lung): 0.421 µM
TGI (SNB-78 CNS): 1.56 µM

Fc1cccc(F)c1C(Nc1nncs1)Nc1nncs1
TGI (MDA-N): > 100 µM

COc1ccc(NC(=O)C(=O)/C=C(\O)c2ccccc2)cc1
TGI (MDA-N): > 10 µM

Cc1cc(=O)c2c(O)cc3c(c2o1)CC=C(COC1OC(COC2OC(CO)C(O)C(O)C2O)C(O)C(O)C1O)CO3 (stereo unspecified)
TGI (M19-MEL melanoma): > 100 µM
TGI (LXFL 529 NSCLC): > 100 µM
TGI (DMS 114 small cell lung): > 100 µM
TGI (SNB-78 CNS): > 100 µM

N#CC1(C#N)C(c2ccccc2)C=CC12OCCCO2 (stereo unspecified)
TGI (HOP-18 NSCLC): > 100 µM
TGI (M19-MEL melanoma): > 100 µM
TGI (RXF-631 renal): > 100 µM
TGI (LXFL 529 NSCLC): 95.2 µM
TGI (DMS 114 small cell lung): 67.8 µM
TGI (SNB-78 CNS): > 100 µM

O=C1c2c(Br)sc(Br)c2[C@@H](NC(=O)C(F)(F)F)C1Br (stereo partly specified)
TGI (MDA-N): 9.14 µM

c1ccc2c(c1)CCc1c-2n[nH]c1-c1[nH]nc2c1CCc1ccccc1-2
TGI (HOP-18 NSCLC): > 100 µM
TGI (M19-MEL melanoma): > 100 µM
TGI (RXF-631 renal): > 100 µM
TGI (LXFL 529 NSCLC): > 100 µM
TGI (DMS 114 small cell lung): > 100 µM
TGI (SNB-78 CNS): > 100 µM

CCOC(=O)/C(I)=C/c1cc(OC)c(OC)c(OC)c1
TGI (HOP-18 NSCLC): 24 µM
TGI (M19-MEL melanoma): 19.3 µM
TGI (LXFL 529 NSCLC): 26.8 µM
TGI (DMS 114 small cell lung): 9.49 µM
TGI (SNB-78 CNS): > 100 µM

C1CSCCSCCCSCCSCCCSCCSCCCSCCSC1
TGI (MDA-N): > 100 µM

O=C(Cc1nc2ccccc2o1)C(=O)Nc1cccc(C(F)(F)F)c1
TGI (HOP-18 NSCLC): > 100 µM
TGI (M19-MEL melanoma): > 100 µM
TGI (RXF-631 renal): > 100 µM
TGI (LXFL 529 NSCLC): > 100 µM
TGI (DMS 114 small cell lung): > 100 µM
TGI (SNB-78 CNS): > 100 µM

COc1cccc(C2c3cc4c(cc3OC3COC(=O)C32)OCO4)c1OC (stereo unspecified)
TGI (MDA-N): > 100 µM

N[C@H](COCc1ccccc1)c1ccccc1
TGI (HOP-18 NSCLC): > 89.8 µM
TGI (M19-MEL melanoma): 64.3 µM
TGI (LXFL 529 NSCLC): 51.5 µM
TGI (DMS 114 small cell lung): 56.3 µM
TGI (SNB-78 CNS): > 100 µM
